The source of these data is patent US8853229B2, “Composition containing statins and omega-3 fatty acids” (Sigma-Tau Industrie Farmaceutiche Riunite S.p.A., priority 2004, dated 2014).

Holding throughout (type): in vivo, mouse
The subject of test [1] is C57BL/KsJ db/db mice. The test is described as follows: Blood glucose levels of db/db mice (antidiabetic activity). The note with it: for Glucose: mean ± S.E. An excerpt:
Mutations in laboratory animals have made it possible to develop models that present non-insulin-dependent diabetes associated with obesity, hyperlipidaemia and insulin resistance and that enable us to test the efficacy of new antidiabetic compounds (Reed and Scribner, Diabetes, obesity and metabolism 1: 75-86, 1999).
A much used genetically diabetic mouse model is the C57BL/KsJ db/db mouse.
The genetic basis of this model is a defect in the leptin receptor gene which gives rise to leptin resistance and leads to hyperphagia, obesity, hyperinsulinaemia and insulin resistance, with subsequent symptoms of insufficient insulin secretion and hyperglycaemia (Kodama et al., Diabetologia 37: 739-744, 1994; Chen et al., Cell 84: 491-495, 1996). Since hyperglycaemia is accompanied by obesity and insulin resistance, the db/db mouse has characteristics that are close to those of type 2 diabetes in man and is useful for assaying insulin-sensitising compounds.
(§1) The C57BL/KsJ db/db mice used in the experiments were supplied by Jackson Lab (via Ch. River). After 10 days of acclimatisation in standard conditions (22±2° C.; 55±15% humidity; 15-20 air changes/hour; 12 hour light-darkness cycle with light from 7 a.m. to 7 p.m.) on a standard 4 RF21 diet (Mucedola), blood samples were taken in post-absorption conditions (fasting from 8.30 a.m. to 4.30 p.m.) from the caudal vein with the aid of a Jelco 22G catheter (Johnson and Johnson). Glucose, insulin, triglyceride, cholesterol, free fatty acid and urea levels were checked in the plasma to ensure well-matched distribution of the mice in the treatment groups.
At the start of treatment, the body weight of the animals was checked and monitoring of the animals' consumption of water and feed was scheduled.
(§2) The mice were divided into groups and treated orally twice daily with:
(§3) Omega-3 fatty acid (EPA+DHA 1:1) 200 mg/kg;
(§4) Omega-3 fatty acid (200 mg/kg)+simvastatin (100 mg/kg);
(§5) Omega-3 fatty acid (200 mg/kg)+simvastatin (100 mg/kg); Coenzyme Q10 (50 mg/kg)+resveratrol (5 mg/kg)+policosanols (hexacosanol 25 mg/kg)+pantethine (100 mg/kg+selenium (0.5 μg/kg)+zinc (2.5 mg/kg).
(§6) In the course of the experiment, serum glucose levels, glucose tolerance (OGTT), a number of lipid status variables and weight gain were monitored.

The test system of test [2] is C57BL/KsJ db/db mice. The test is described as follows: Oral glucose tolerance test (OGTT) in db/db mice. The note with it: oral twice daily for 18 days, OGTT glucose 3 g/kg, fasted 18 hours, 5 hours after last treatment. The procedure:
(§7) The C57BL/KsJ db/db mice used in the experiments were supplied by Jackson Lab (via Ch. River). […] Glucose, insulin, triglyceride, cholesterol, free fatty acid and urea levels were checked in the plasma to ensure well-matched distribution of the mice in the treatment groups.
as §2, §3, §4, §5, §6

Test [3] concerns C57BL/KsJ db/db mice. The test is described as follows: Plasma fructosamine levels of db/db mice. The note with it: oral twice daily for 25 days, post-absorption condition, 7.30 hours after last treatment. The procedure: as §1, §2, §3, §4, §5, §6
The test system of test [4] is C57BL/KsJ db/db mice. Description: Plasma triglyceride levels of db/db mice. To be noted: oral twice daily for 25 days, post-absorption condition, 7.30 hours after last treatment. The procedure: as §7, §2, §3, §4, §5, §6
The test system of test [5] is C57BL/KsJ db/db mice. The test is described as follows: Plasma HDL-cholesterol levels of db/db mice. To be noted: oral twice daily for 25 days, post-absorption conditions, 7.30 hours after last treatment. The procedure: as §1, §2, §3, §4, §5, §6
Where [6] appears, read: oral twice daily for 12 days, feeding condition, approx. 15 hours after last treatment.
The mark [7] stands for this setting: oral twice daily for 18 days, fasted for 18 hours, 5 hours after last treatment.

With `CCC(C)(C)C(=O)O[C@H]1C[C@@H](C)C=C2C=C[C@H](C)[C@H](CC[C@@H]3C[C@@H](O)CC(=O)O3)[C@H]21` [Simvastatin], the “% Variation (glucose) vs control” value in the test with C57BL/KsJ db/db mice [1] (setting [6]) was −7.6%; with C57BL/KsJ db/db mice [1] (oral twice daily for 12 days, post-absorption condition, 8 hours after last treatment) it was 1.2%; in the test with C57BL/KsJ db/db mice [1] (setting [7]) it was −5.5%. Further, the Glucose in the test on C57BL/KsJ db/db mice [1] (setting [6]) stood at 450 ± 21 mg/dL; with C57BL/KsJ db/db mice [1] (oral twice daily for 12 days, post-absorption condition (fasting 9 a.m. to 5 p.m.), 8 hours after last treatment) it was 419 ± 33 mg/dL; in the test on C57BL/KsJ db/db mice [1] (setting [7]), 325 ± 27 mg/dL. In addition, in the test on C57BL/KsJ db/db mice [2], the “% Variation (AUC glucose, OGTT) vs control” value is −5.9%. In addition, the “AUC Glucose (OGTT)” value in the test with C57BL/KsJ db/db mice [2] (mean ± S.E.) came out at 48174 ± 3555 u.a. For the same compound, the “% Variation (fructosamine) vs control” value in the test on C57BL/KsJ db/db mice [3] is −2.5%. Also, the Fructosamine in the test with C57BL/KsJ db/db mice [3] (mean ± S.E.) is given as 0.78 ± 0.12 mM. For the same compound, the “Variation (triglycerides) vs control” value with C57BL/KsJ db/db mice [4] is given as −16.5%. Further, the Triglycerides with C57BL/KsJ db/db mice [4] (mean ± S.E.) turned out to be 79.7 ± 5.1 mg/dL. Besides, the “% Variation (HDL-cholesterol) vs control” value with C57BL/KsJ db/db mice [5] is reported as −11.7%. This compound came in with an HDL-cholesterol in the test on C57BL/KsJ db/db mice [5] (mean ± S.E.) of 72.4 ± 4.6 mg/dL.
